Results from patent EP4748840A1, “IMIDAZO[1,2-A]PYRIDINE TYPE IRAK DEGRADATION AGENT AND USE THEREOF” (TAINUORUI (TIANJIN) BIOTECHNOLOGY CO., LTD, priority 2023, dated 2025).

Assays:
[1] = In vivo pharmacokinetic study in mice; conditions: male CD1 mice
Experimental: In vivo pharmacokinetic study
The pharmacokinetic behaviors of Example 1 and Example 15 in mice were studied using the following experimental protocol to evaluate their pharmacokinetic characteristics.
The mice had free access to food and water before the test.
(§1) Approximately 0.03 mL of venous blood was collected from the dorsal metatarsal vein of each mouse separately after 0.033 h, 0.083 h, 0.25 h, 0.5 h, 1 h, 2 h, 4 h, 8 h, and 24 h since intravenous injection. The blood was placed in an EDTA-K2 tube and centrifuged for 5 min at 4000 g and 4°C. The plasma was separated. The concentration of the compound in the plasma was determined through liquid chromatography-tandem mass spectrometry.
as §1, with “after” for “after 0.033 h,”, “oral administration.” for “intravenous injection.”

IRAK4 = biological target: T1, IRAK4 (Homo sapiens, UniProt Q9NWZ3); test: HiBiT-based intracellular degradation assay of THP1-HIBiT-IRAK4 cells; format: cell-based; conditions: half-maximal degradation concentration of IRAK4 protein, 24 h incubation
T1 construct: expressed in transfected cells; host or cells: THP1 (THP1-HIBiT-IRAK4 engineered line)
T1 sequence (Q9NWZ3 1-460): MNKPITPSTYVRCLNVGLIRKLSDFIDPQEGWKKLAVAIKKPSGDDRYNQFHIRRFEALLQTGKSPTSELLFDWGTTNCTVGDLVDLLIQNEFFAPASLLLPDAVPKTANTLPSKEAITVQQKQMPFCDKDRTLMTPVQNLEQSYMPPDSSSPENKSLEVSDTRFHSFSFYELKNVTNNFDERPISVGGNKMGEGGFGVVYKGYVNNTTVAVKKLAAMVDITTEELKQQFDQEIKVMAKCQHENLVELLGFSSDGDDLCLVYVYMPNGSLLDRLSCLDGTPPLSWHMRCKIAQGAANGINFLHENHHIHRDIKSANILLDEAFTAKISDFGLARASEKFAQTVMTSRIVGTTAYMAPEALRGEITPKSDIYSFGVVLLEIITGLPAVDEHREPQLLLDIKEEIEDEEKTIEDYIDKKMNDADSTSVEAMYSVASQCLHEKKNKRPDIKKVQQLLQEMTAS
Experimental: HiBiT-based intracellular degradation assay of THP1-HIBiT-IRAK4 cells
THP1-HIBiT-IRAK4 cells were cultured in RPMI 1640 medium supplemented with 10% fetal bovine serum (FBS) and 1% penicillin-streptomycin (PS) (37°C and 5% CO2). The THP1-HIBiT-IRAK4 cells were inoculated in a 384-well plate at 5000 cells/40 µL/well. Compound solutions with different concentrations were added at 40 nL/well and incubated for 24 h at 37°C in 5% CO2. HiBiT lysis detection reagents were added to the wells, the plate was incubated for 30 min at room temperature, and luminescence values were read on Envision. [formula]
The DC50 (half-maximal degradation concentration) of each compound was obtained using XLfit software and the following nonlinear fitting equation: Y = bottom + (top−bottom)/(1+10^(∧)((LogDC50−X)×Hillslope)). [formula]
X denotes a log value of the compound concentration.
Y denotes the degradation rate.
Table 1 lists the results of DC50 values of IRAK4 protein degradation. […]

[2] = Liver microsomal stability assay (dog); format: in vitro ADME; conditions: Dog liver microsomes 0.5 mg/mL, NADPH and UDPGA, 1 µM compound
Experimental: (§2) Liver microsomal stability assay
(§3) Microsomes were stored in a -80°C refrigerator, thawed in a 37°C water bath before use, and placed on ice after thawing. All other reagents were purchased from local suppliers.
(§4) In step 1, a reaction system was configured as follows:
(§5) In step 2, 40 µL of 10 mM NADPH solution and 40 µL of 20 mM UDPGA solution were added to the above reaction system, where the final concentrations of NADPH and UDPGA were 1 mM and 2 mM, respectively. 80 µL of ultrapure water was used as negative control to replace the NADPH and UDPGA solutions. The reaction system was pre-incubated for 10 min in a 37°C water bath. […]
(§6) All data calculations were performed using Microsoft Excel software. Peak areas were determined from extracted ion chromatograms and used for calculating the remaining percentage at each time point.
(§7) The remaining percentage was calculated by the following formula: remaining percentage (%) = (peakarearatiotime point/peakarearatio0 min) × 100. […]
(§8) An elimination rate constant (k) was determined through linear fitting of a natural logarithm of the remaining percentage of a parent drug versus time.
(§9) The half-life t1/2 was calculated from the elimination rate constant: t1/2 = 0.693/k.
(§10) The in vitro intrinsic clearance (µL/min/mg) was calculated by the following formula: invitroCLint = kV/N. [formula] […]

[3] = Liver microsomal stability assay (human); format: in vitro ADME; conditions: Human liver microsomes 0.5 mg/mL, NADPH and UDPGA, 1 µM compound
Experimental: as §2, §3, §4, §5, §6, §7, §8, §9, §10

[4] = Liver microsomal stability assay (monkey); format: in vitro ADME; conditions: Monkey liver microsomes 0.5 mg/mL, NADPH and UDPGA, 1 µM compound
Experimental: as §2, §3, §4, §5, §6, §7, §8, §9, §10

[5] = Liver microsomal stability assay (mouse); format: in vitro ADME; conditions: Mouse liver microsomes 0.5 mg/mL, NADPH and UDPGA, 1 µM compound
Experimental: as §2, §3, §4, §5, §6, §7, §8, §9, §10

[6] = Liver microsomal stability assay (rat); format: in vitro ADME; conditions: Rat liver microsomes 0.5 mg/mL, NADPH and UDPGA, 1 µM compound
Experimental: as §2, §3, §4, §5, §6, §7, §8, §9, §10

[7] = mouse, plasma, Intravenous Injection (2 mg/kg)

## CC(C)(O)c1cc2nc(C3CCN(CC4CCN(c5cc6c(cc5F)C(=O)N(C5CCC(=O)NC5=O)C6=O)CC4)CC3)cn2cc1NC(=O)c1cccc(C(F)(F)F)n1 (centres unmarked) [Example 15, N-(2-(1-((1-(2-(2,6-dioxopiperidin-3-yl)-6-fluoro-1,3-dioxoisoindolin-5-yl)piperidin-4-yl)methyl)piperidin-4-yl)-7-(2-hydroxypropan-2-yl)imidazo[1,2-a]pyridin-6-yl)-6-(trifluoromethyl)pyridine-2-carboxamide]
[1]; oral bioavailability, Oral Administration (20 mg/kg) vs Intravenous Injection (2 mg/kg)
  F: 61.7%
[1]; [7]
  clearance: 2.23 L/h/kg
  half-life: 8.05 h
[1]; mouse, plasma, Oral Administration (20 mg/kg)
  half-life: 8.01 h
[1]; mouse, Intravenous Injection (2 mg/kg), plasma
  AUC(0-t): 0.87 µg·h/mL
[1]; mouse, Oral Administration (20 mg/kg), plasma
  AUC(0-t): 4.76 µg·h/mL
IRAK4
  DC50: 1.62 nM
[2]
  half-life at 1 µM: 4.33 h
  microsomal CLint at 1 µM: 5.34 µL/min/mg
[3]
  half-life at 1 µM: 6.68 h
  microsomal CLint at 1 µM: 3.46 µL/min/mg
[4]
  half-life at 1 µM: 3.2 h
  microsomal CLint at 1 µM: 7.22 µL/min/mg
[5]
  half-life at 1 µM: 2.39 h
  microsomal CLint at 1 µM: 9.67 µL/min/mg
[6]
  half-life at 1 µM: 2.23 h
  microsomal CLint at 1 µM: 10.4 µL/min/mg
